“Also recorded” adds a separate entry of the source.
Assays:
γ-secretase = target: T1, γ-secretase (Rattus norvegicus, UniProt P97887); assay: γ-secretase activity assay (Notch ΔE-GVP / UAS-luciferase reporter) in RIN cells; type: cell-based; conditions: for effect on Ex-4-activated γ-secretase cleavage / UAS promoter activation: RIN cells transfected with Notch ΔE-GVP
T1 construct: endogenous in cells; host or cells: RIN 1046-38 rat β-cells
Procedure: Transfections and Luciferase assays. The rat insulin-I promoter linked to the luciferase reporter plasmid pGL3 (Ins-1-luc) was obtained from Michael Freemark (Fleenor and Freemark, Endocrinology, 142:2805-2810 (2001)), and both the Notch ΔE-GVP plasmid and UAS responsive reporter gene construct MH100 were from Johan Lundkvist (Karlstrom, et al., J Biol Chem, 277:6763-6766 (2002)). For the insulin reporter gene assay, RIN cells in 35 mm dishes were co-transfected with 0.8 μg ins-1-luc plasmid and 0.7 μg of pCMV-β-galactosidase using 8 μl of Polyfect (Qiagen). For the γ-secretase activity assay RIN cells in 12 well plates were co-transfected with 30 ng of pCMV-β-galactosidase, 200 ng of MH100, 100 ng Notch ΔE-GVP plasmids for each well using Lipofectamine PLUS (Invitrogen). The transfected cells were allowed to recover for 24-48 h in medium with serum and subsequently incubated in insulin secretion assay buffer (for the insulin promoter assay) or in medium without serum (for the γ-secretase assay) with or without Ex-4 and inhibitors. Ins-1-luc and Notch ΔE-GVP activities were measured using assay system kits from Promega according to the manufacturer's instructions using a Berthord LB 9501 luminometer. The luciferase values were normalized to β-galactosidase measured using the luminometer for lysates from 35 mm dishes and an ELISA plate reader (Spectra Max Plus, Molecular Devices) for lysates from 12 well plates.

Notch-1 (NICD) [1] = assay: NICD nuclear translocation in RIN cells (indirect immunofluorescence, immunoblot of nuclear extracts); type: cell-based, rat; conditions: for effect on Ex-4-mediated translocation of NICD: H89 10 μM, L-685,458 pretreatment for 2 h
Procedure: (§1) Islet isolation, cell culture and treatments. Adult rat (Sprague-Dawley) and mouse (C57/BL6) islets were isolated by collagenase P digestion and cultured overnight in M199 medium (5 mM glucose). RIN 1046-38 β-cells were cultured as outlined previously (Wang, et al., Endocrinology, 142:1820-1827 (2001)). Isolated human islets came from David Harlan, Transplant Section, NIDDK. Ex-4, GLP-1, CCK (all used at concentrations previously shown to cause maximum insulin release), Ex and the γ-secretase inhibitor, L-685,458, were obtained from Bachem. H89 was from Calbiochem, insulin was from Sigma. The Jagged peptides, R-JAG […] (SEQ ID NO:1), JAG-1 […] (SEQ ID NO:2), and scrambled control peptide without agonist activity, sc-Jagged […] (Nickoloff, et al., Cell Death Differ, 9842-855 (2002)) (SEQ ID NO:3), were synthesised by New England Peptide Inc.
(§2) Cell extracts, immunoblotting and RT-PCR. Cytosolic and nuclear cell extracts were prepared using the NE-PER Nuclear and Cytoplasmic Extraction Reagents (Pierce) in accordance with the manufacturer's instructions. Whole cell extracts were isolated as described (Wang, et al., Endocrinology, 142:1820-1827 (2001)). Cell extracts were separated by Tris-glycine (10%, 4-12%) PAGE (Invitrogen) and immunoblofted as described (Wang, et al., Endocrinology, 142:1820-1827 (2001)) using the following antibodies: rabbit anti-Notch1 (1:5,000), rabbit anti-IRS2 (1:1,000), both from Upstate Biotechnology, rabbit N-terminal anti-PDX-1 (1:10,000, from Joel Habener (Stanojevic, et al., Endocrinology, 145:2918-2928 (2004)). Total RNA was extracted using Triazol (Invitrogen) according to the manufacturer's instructions. RT-PCR was performed using the Qiagen OneStep RT-PCR kit. See Table 2 for primer sequences and annealing temperatures. Each target gene was amplified over 35 cycles.
(§3) RIN cells were permeabilized in Triton-X (0.1%) on ice and blocked for 1 h at room temperature in 3% BSA and 0.1% Tween in PBS. They were incubated overnight at 4° C. with the primary antibody, washed in PBS and incubated with fluorescent labelled secondary antibody for 1 h, washed and mounted with fluorescence mounting medium (Vector Laboratories). Mouse sections (FIG. 9) for indirect immunofluorescence were antigen-retrieved, processed in the same manner as the cells and stained with anti-Notch-1. Indirect immunofluorescent staining was imaged using a Zeiss LSM-410 inverted microscope. AlexaFluor antibodies (Molecular Probes; Eugene, Oreg.) were excited with the 488-nm line of a krypton-argon laser and recorded at the presence of emission filter BP515-565 nm. The microscope objective was a Zeiss 63×NA 1.4 oil immersion and the confocal pinhole was set to obtain spatial resolution of […] in the horizontal plane and […] in the axial dimension.

C57/BL6 mouse islets = assay: Immunoblotting for IRS2 and PDX-1 in C57/BL6 mouse islets treated for 8 h; type: cell-based; conditions: for PDX-1 levels: islets
Procedure: as §1, §2

RIN 1046-38 β-cells = assay: Insulin secretion and intracellular insulin in RIN cells (ELISA); type: cell-based, rat; conditions: for insulin release, R-JAG and Ex-4 together vs either alone: 6 h time point; for total intracellular insulin: 6 h treatment; for insulin release into the medium: time course
Procedure: (§4) Insulin assays and cell turnover studies. Insulin secretion assays were performed and intracellular insulin was extracted as described (Wang, Y. et al., J. Clin. Invest., 99:2883-2889 (1997)), followed by insulin quantification using an ELISA kit (Crystal Chem). Cells were treated for 8 h as indicated and pulsed with [^3H]thymidine (PerkinElmer Life Sciences) at 37° C., followed by lysis of the cells and [^3H] counting (He, et al., J Biol Chem, 278:27096-27104 (2003)).

Notch-1 (NICD) [2] = assay: NICD in islet nuclei of wild-type and GLP-1R null mice after intraperitoneal treatment; type: in vivo, mouse; conditions: fasted, 1 nmol/kg IP
Procedure: as §3, with “Animal Protocols. Wild-type and GLP-1R −/− mice (Scrocchi, L. A. et al. Nat. Med., 2:1254-1258 (1996)) were injected intraperitoneally with Ex-4 (1 nmol/kg) or glucose (1 g/kg) after overnight fast and their pancreata excised. Animal protocols were approved by the NIA Animal Care and Use Committee. RIN” for “RIN”

RIN cells [3] = assay: [3H]thymidine uptake (β-cell proliferation) in RIN cells; type: cell-based, rat; conditions: 8 h treatment
Procedure: as §4

Rat islets = assay: Rat islets: real time PCR and intracellular insulin after R-JAG; type: cell-based
Procedure: Rat islets (80) were pre-incubated for 2 periods of 30 min in the glucose-free buffer in a 37° C. humidified air incubator. […] At the end of the experiment, islets were centrifuged and any residual medium removed and stored −20° C. for quantification of insulin released. The pellet was suspended in ice cold acid-ethanol (500 μl) and homogenized. After centrifugation of the homogenate (1,400 g, 4° C.) the supernatant was collected for measurement of intracellular insulin using the Rat insulin ELISA kit from Crystal Chem. Inc. (Chicago, Ill.). The pellet was lysed with 0.2 ml formic acid and saved at […] for analysis of protein by the Bradford method (Bio-Rad Laboratories, Inc. Richmond, Calif.). A control condition with insulin secretion assay buffer containing just 6 mM glucose was used. Insulin values were normalized to protein content.
Reverse transcription. DNA-free RNA was isolated using the Triazol extraction method (Invitrogen; Carlsbad, Calif.) following the manufacturer's protocol. DNAse I treatment and inactivation, and reverse transcription reaction primed with random sequence oligonucleotides were performed using Ambion instruction manual and Cells-to-cDNA II kits components in the I-Cycler thermocycler from BioRad. As a control, a mock reverse transcription containing all RT reagents except the Reverse Transcriptase, which was substituted with water, was used.
Real Time PCR. Real time PCR reactions were performed using the ABI PRISM™ 7700 Sequence Detection Systems (Applied Biosystems; Valencia, Calif.) and the SYBER Green kit from Applied Biosystems. All PCR reactions were performed in triplicate using the SYBER Green master mix (12.5 μl) from Applied Biosystems, 1 μg of cDNA, 2.5 μl of each 0.5 μM primer and water for a 25 μl reaction. Cycling parameters for amplifications of target genes were (95° C. for 10 min, at 94° C. for 15 seconds, 60° C. for 1 min)×40 cycles. The target gene copy number in unknown samples was quantified by measuring the threshold cycle CT and by using the standard curve to determine the starting copy number. The β-actin gene was an endogenous control. Final results were expressed as n-fold differences relative to untreated controls.

RIN cells [4] = assay: RT-PCR and immunoblotting of whole RIN cell extracts (insulin, IRS2, PDX-1, Notch-1); type: cell-based, rat
Procedure: as §2, with “Each target gene was amplified over 35 cycles.” left out

Question: `O=S(=O)(NCCNC/C=C/c1ccc(Br)cc1)c1cccc2cnccc12` [H89] was tested. Which “effect on Ex-4-activated γ-secretase cleavage / UAS promoter activation” value (γ-secretase) did it give?
Answer: greatly diminished; also recorded: abrogated; also recorded: blocked

Question: What about the “effect on glucose-mediated NICD translocation” value (Notch-1 (NICD) [1]; RIN cells) of the same compound?
Answer: prevented

Question: What about the “effect on Ex-4-mediated translocation of NICD” value (Notch-1 (NICD) [1]; RIN cells) of the same compound?
Answer: diminished

Question: Which “effect on Ex-4-activated γ-secretase cleavage / UAS promoter activation” value (γ-secretase) does the source give for `CC(C)C[C@H](NC(=O)[C@H](Cc1ccccc1)C[C@@H](O)[C@H](Cc1ccccc1)NC(=O)OC(C)(C)C)C(=O)N[C@@H](Cc1ccccc1)C(N)=O` [L-685,458] here?
Answer: greatly diminished; also recorded: abrogated; also recorded: blocked

Question: And the “effect on Ex-4-mediated translocation of NICD” value (Notch-1 (NICD) [1]; RIN cells)?
Answer: inhibited

Question: What about the “effect on Ex-4-mediated increase in IRS2 levels” value (C57/BL6 mouse islets; C57/BL6 mouse islets) of the same compound?
Answer: diminished; also recorded: decreased

Question: What about the “effect on R-JAG-mediated increases in IRS2 levels” value (C57/BL6 mouse islets; C57/BL6 mouse islets) of the same compound?
Answer: prevented; also recorded: completely abrogated

Question: For Exendin 9-39, which “NICD nuclear localization with GLP-1 (50 nM) in conjunction with the GLP-1R antagonist” value (Notch-1 (NICD) [1]; RIN cells, antagonist 500 nM) is on record?
Answer: equivalent to glucose treatment alone

Question: For Exendin-4 [Ex-4], which “increase in transcriptional activation of the UAS promoter (cleavage of Notch ΔE-GVP)” value (γ-secretase; RIN cells transfected with Notch ΔE-GVP and MH100) is on record?
Answer: at least 20 fold

Question: What about the “insulin release, R-JAG and Ex-4 together vs either alone” value (RIN 1046-38 β-cells; RIN cells) of the same compound?
Answer: greater that either alone

Question: What about the total intracellular insulin (RIN 1046-38 β-cells; RIN cells) of the same compound?
Answer: increased

Question: And the “insulin release into the medium” value (RIN 1046-38 β-cells; RIN cells)?
Answer: acutely increased

Question: What about the “NICD translocation to islet cell nuclei” value (Notch-1 (NICD) [2]) of the same compound?
Answer: caused NICD translocation to nuclei of practically all islet cells; also recorded: increased NICD in all islet cells

Question: What about the “[3H]thymidine uptake, increase above glucose treatment” value (RIN cells [3]) of the same compound?
Answer: increased

Question: And the PDX-1 levels (C57/BL6 mouse islets)?
Answer: increased

Question: With “R-JAG: Jagged-related peptide, Notch receptor binding fragment, CDDYYYGFGCNKFGRPRDD (SEQ ID NO:1)” as the compound, how does the “trypan blue exclusion (cell death)” value (RIN 1046-38 β-cells; RIN cells treated with R-JAG) read?
Answer: continued to exclude trypan blue

Question: What about the “insulin secretion, replenishment every two hours vs single treatment” value (RIN 1046-38 β-cells; RIN cells, 6 h) of the same compound?
Answer: greater effect

Question: What about the “insulin release, R-JAG and Ex-4 together vs either alone” value (RIN 1046-38 β-cells; RIN cells) of the same compound?
Answer: greater that either alone

Question: What about the total intracellular insulin (RIN 1046-38 β-cells; RIN cells) of the same compound?
Answer: significant increase

Question: And the “insulin release into the medium” value (RIN 1046-38 β-cells; RIN cells)?
Answer: elevated insulin release into the medium after 2.5 h had elapsed

Question: What about the intra-cellular insulin (Rat islets; R-JAG 10 μM, glucose 6 mM) of the same compound?
Answer: increase

Question: What about the IRS-2 transcription (Rat islets; over 2 and 6 hours) of the same compound?
Answer: increases

Question: What about the PDX-1 transcription (Rat islets; over 2 and 6 hours) of the same compound?
Answer: increases

Question: What about the insulin transcription (Rat islets; over 2 and 6 hours) of the same compound?
Answer: increases

Question: What about the PDX-1 levels (RIN cells [4]) of the same compound?
Answer: increased

Question: And the “IRS2 and insulin mRNA with replenishing every 2 h” value (RIN cells [4]; RT-PCR)?
Answer: sustained elevations

Question: And the “IRS-2 mRNA” value (RIN cells [4]; RT-PCR)?
Answer: increased

Question: And the “insulin mRNA levels” value (RIN cells [4]; RT-PCR)?
Answer: increased

Question: And the “time course of IRS2 and insulin mRNA after single treatment” value (RIN cells [4]; RT-PCR 27 cycles, normalized to GAPDH)?
Answer: diminished after 8 h

Question: And the IRS-2 protein levels (RIN cells [4]; immunoblot)?
Answer: increased

Question: What about the “total Notch1 levels” value (RIN cells [4]; immunoblot) of the same compound?
Answer: increased

Question: And the “[3H]thymidine uptake, increase above glucose treatment” value (RIN cells [3])?
Answer: 30%

Question: What about the PDX-1 levels (C57/BL6 mouse islets) of the same compound?
Answer: increased

Question: And the “increase in IRS-2 protein levels” value (C57/BL6 mouse islets; mouse islets of Langerhans)?
Answer: 1.5 fold

Question: With insulin as the compound, how does the “nuclear NICD / NICD translocation” value (Notch-1 (NICD) [1]; RIN cells treated with secretagogues) read?
Answer: equivalent to control samples

Question: Which “[3H]thymidine uptake, increase above glucose treatment” value (RIN cells [3]) does the source give for “scrambled Jagged peptide: scrambled control peptide without agonist activity, RCGPDCFDNYGRYKYCF (SEQ ID NO:3)” here?
Answer: no effect

From US7888116B2, “Uses of notch receptors, notch ligands, and notch modulators in methods related to metabolic diseases” (The United States of America as represented by the …, priority 2005, dated 2011)
